According to US20150329558A1, “FUSED HETEROCYCLIC COMPOUNDS AS ION CHANNEL MODULATORS” (Gilead Sciences, Inc., priority 2011, published 2015):

Target: wild-type human cardiac sodium channel, hNav1.5 (late INa) (Homo sapiens, UniProt Q14524)
Assay: Late INa screening assay (QPatch whole cell patch clamp)
Type: cell-based
Settings: percent block of late INa, compound at 1 μM, 10 μM Tefluthrin, HEK293 hNav1.5; read-out: Late INa 1 μM
Method: The late sodium current (Late INa) and peak sodium current (Peak INa) assays are performed on an automated electrophysiology platform, QPatch 16× (Sophion Bioscience, Copenhagen, Denmark), which uses the whole cell patch clamp technique to measure currents through the cell membrane of up to 16 cells at a time. The assay uses an HEK293 (human embryonic kidney) cell line heterologously expressing the wild-type human cardiac sodium channel, hNav1.5, purchased from Millipore (Billerica, Mass.). No beta subunits were coexpressed with the Na channel alpha subunit. Cells are maintained with standard tissue culture procedures and stable channel expression is maintained with 400 μg/mL Geneticin in the culture medium. […] Experiments are carried out at 23-25° C. For both the Late INa and Peak INa assays, series resistance compensation is set to 100% and series resistance and whole-cell compensation are performed automatically. Currents are digitized at 25 kHz and low-pass filtered at 12 kHz and 10 kHz for the late and peak INa assays, respectively. Currents through open sodium channels are automatically recorded and stored in the Sophion Bioscience Oracle database (Sophion Bioscience, Copehagen, Denmark). Analysis is performed using QPatch Assay and database software and data are compiled in Excel. Compound stocks are routinely made by the Gilead Sample Bank in plastic vials to 10 mM in dimethyl sulfoxide (DMSO). In some cases, when compounds are not soluble in DMSO, they are made in 100% ethanol. Stocks are sonicated as necessary. […] The intracellular solution used to perfuse the inside of the cells for both the Late INa and Peak INa assays contains: 120 mM CsF, 20 mM CsCl, 5 mM EGTA, 5 mM HEPES and pH adjusted to 7.4 with CsOH. Compounds are diluted in extracellular solution to 1 μM in glass vials and then transferred to glass well plates before robotic addition to the cells. […] For the Late INa assay, sodium channels are activated every 10 seconds (0.1 Hz) by depolarizing the cell membrane to −20 mV for 250 milliseconds (ms) from a holding potential of −120 mV. In response to a −20 mV voltage step, typical hNav1.5 sodium currents activate rapidly to a peak negative current and then inactivate nearly completely within 3-4 ms. All compounds were tested to determine their activity in blocking the late sodium current. Late INa was generated by adding 10 μM Tefluthrin (pyrethroid) to the extracellular solution while recording Na currents. To confirm the block of late INa observed using the automated screening method, a second late INa enhancer (ATX-II) and the manual patch clamp method were used. ATX-II and tefluthrin occupy distinct, non-overlapping binding sites and modify Na^+ channel function differently to increase late INa. […] For the purposes of the screening, late INa is defined as the mean current between 225 ms and 250 ms after stepping to −20 mV to activate Na channels. […] Results are reported as percent block of late INa.

Sequence of wild-type human cardiac sodium channel, hNav1.5 (late INa) (Q14524 whole entry): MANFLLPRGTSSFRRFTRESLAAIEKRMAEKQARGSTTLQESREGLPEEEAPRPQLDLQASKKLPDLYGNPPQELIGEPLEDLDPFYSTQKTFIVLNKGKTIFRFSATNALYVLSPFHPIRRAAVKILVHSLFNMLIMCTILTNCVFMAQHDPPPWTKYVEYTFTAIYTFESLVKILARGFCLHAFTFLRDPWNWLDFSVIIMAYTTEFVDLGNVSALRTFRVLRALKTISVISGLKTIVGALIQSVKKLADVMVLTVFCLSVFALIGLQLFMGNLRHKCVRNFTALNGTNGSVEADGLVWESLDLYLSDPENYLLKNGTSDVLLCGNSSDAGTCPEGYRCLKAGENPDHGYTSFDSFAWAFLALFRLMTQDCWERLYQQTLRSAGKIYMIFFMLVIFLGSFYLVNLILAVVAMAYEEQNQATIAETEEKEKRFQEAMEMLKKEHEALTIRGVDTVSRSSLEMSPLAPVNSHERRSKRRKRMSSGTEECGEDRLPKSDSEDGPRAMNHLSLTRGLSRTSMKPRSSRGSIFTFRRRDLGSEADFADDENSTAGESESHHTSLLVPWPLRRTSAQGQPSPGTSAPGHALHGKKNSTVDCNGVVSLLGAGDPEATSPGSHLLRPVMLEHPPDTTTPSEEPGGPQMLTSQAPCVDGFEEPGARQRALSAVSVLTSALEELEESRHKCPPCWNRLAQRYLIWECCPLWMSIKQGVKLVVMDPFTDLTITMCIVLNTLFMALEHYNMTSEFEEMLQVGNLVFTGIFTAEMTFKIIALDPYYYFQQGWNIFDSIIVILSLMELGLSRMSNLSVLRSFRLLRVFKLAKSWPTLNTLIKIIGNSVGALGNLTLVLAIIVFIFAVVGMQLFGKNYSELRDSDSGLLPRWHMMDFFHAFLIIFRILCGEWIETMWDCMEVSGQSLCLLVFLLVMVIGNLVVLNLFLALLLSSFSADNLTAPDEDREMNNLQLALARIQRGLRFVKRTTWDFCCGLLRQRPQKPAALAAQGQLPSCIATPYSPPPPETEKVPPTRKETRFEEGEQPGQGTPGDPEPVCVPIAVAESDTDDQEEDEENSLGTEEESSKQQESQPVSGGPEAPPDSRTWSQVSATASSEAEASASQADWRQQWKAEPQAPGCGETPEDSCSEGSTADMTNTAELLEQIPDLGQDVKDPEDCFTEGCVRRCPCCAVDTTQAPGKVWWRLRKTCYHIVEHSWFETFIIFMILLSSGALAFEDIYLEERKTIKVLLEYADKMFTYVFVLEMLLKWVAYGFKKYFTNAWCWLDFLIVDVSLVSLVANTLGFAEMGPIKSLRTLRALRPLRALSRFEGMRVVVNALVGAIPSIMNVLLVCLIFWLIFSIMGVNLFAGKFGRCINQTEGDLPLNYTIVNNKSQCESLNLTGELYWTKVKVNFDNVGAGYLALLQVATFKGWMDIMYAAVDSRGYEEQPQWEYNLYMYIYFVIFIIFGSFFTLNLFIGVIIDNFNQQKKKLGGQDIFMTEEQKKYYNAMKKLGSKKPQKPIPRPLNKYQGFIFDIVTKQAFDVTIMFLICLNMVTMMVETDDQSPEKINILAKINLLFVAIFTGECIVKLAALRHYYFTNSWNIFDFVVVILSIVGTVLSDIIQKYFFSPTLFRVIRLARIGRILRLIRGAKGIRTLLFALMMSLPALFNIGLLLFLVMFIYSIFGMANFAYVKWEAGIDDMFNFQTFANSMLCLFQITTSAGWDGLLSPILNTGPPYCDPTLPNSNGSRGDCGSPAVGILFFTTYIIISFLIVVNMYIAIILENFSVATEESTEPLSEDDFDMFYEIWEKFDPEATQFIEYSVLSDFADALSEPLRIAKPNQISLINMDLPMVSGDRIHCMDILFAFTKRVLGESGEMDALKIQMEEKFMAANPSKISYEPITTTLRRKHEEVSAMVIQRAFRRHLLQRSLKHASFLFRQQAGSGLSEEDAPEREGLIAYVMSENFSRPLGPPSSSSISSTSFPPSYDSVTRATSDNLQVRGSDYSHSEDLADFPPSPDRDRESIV

Structure (SMILES) | inhibition at 1 µM
Cc1nc(Cn2nnc3ccc(-c4ccc(OCC(F)(F)F)nc4)cc3c2=O)no1 [Compound V-2, 3-((5-methyl-1,2,4-oxadiazol-3-yl)methyl)-6-(6-(2,2,2-trifluoroethoxy)pyridin-3-yl)benzo[d][1,2,3]triazin-4(3H)-one] | 17%
O=c1c2cc(-c3ccc(C(F)(F)F)nc3)ccc2nnn1CCOc1ncccn1 [Compound V-11, 3-(2-(pyrimidin-2-yloxy)ethyl)-6-(6-(trifluoromethyl)pyridin-3-yl)benzo[d][1,2,3]triazin-4(3H)-one] | 22%
O=c1c2cc(-c3ccc(OC(F)(F)F)cc3)ccc2nnn1Cc1cc(-c2ccccc2)no1 [II-10, 3-((3-phenylisoxazol-5-yl)methyl)-6-(4-(trifluoromethoxy)phenyl)benzo[d][1,2,3]triazin-4(3H)-one] | 21%
O=c1c2cc(-c3ccc(OC(F)(F)F)cc3)ccc2nnn1Cc1nc(Cc2ccccc2)no1 [II-12, 3-((3-benzyl-1,2,4-oxadiazol-5-yl)methyl)-6-(4-(trifluoromethoxy)phenyl)benzo[d][1,2,3]triazin-4(3H)-one] | 21%
O=c1c2cc(-c3ccc(OC(F)(F)F)cc3)ccc2nnn1Cn1nnnc1-c1ccccc1 [II-21, 3-((5-phenyl-1H-tetrazol-1-yl)methyl)-6-(4-(trifluoromethoxy)phenyl)benzo[d][1,2,3]triazin-4(3H)-one] | 70%
O=c1c2cc(-c3ccc(OC(F)(F)F)cc3)ccc2nnn1C1CC1 [II-22, 3-cyclopropyl-6-(4-(trifluoromethoxy)phenyl)benzo[d][1,2,3]triazin-4(3H)-one] | 21%
Cc1nc(Cn2nnc3ccc(-c4ccc(OC(F)(F)F)cc4)cc3c2=O)oc1C [II-23, 3-((4,5-dimethyloxazol-2-yl)methyl)-6-(4-(trifluoromethoxy)phenyl)benzo[d][1,2,3]triazin-4(3H)-one] | 23%
O=c1c2cc(-c3ccc(OC(F)(F)F)cc3)ccc2nnn1Cn1nc2ccccc2n1 [II-28, 3-((2H-benzo[d][1,2,3]triazol-2-yl)methyl)-6-(4-(trifluoromethoxy)phenyl)benzo[d][1,2,3]triazin-4(3H)-one] | 19%
N#CC1(n2nnc3ccc(-c4ccc(OC(F)(F)F)cc4)cc3c2=O)CC1 [II-33, 1-(4-oxo-6-(4-(trifluoromethoxy)phenyl)benzo[d][1,2,3]triazin-3 (4H)-yl)cyclopropanecarbonitrile] | 26%
O=c1c2cc(-c3ccc(OC(F)(F)F)cc3)ccc2nnn1C1CCN(c2ncccn2)CC1 [II-39, 3-(1-(pyrimidin-2-yl)piperidin-4-yl)-6-(4-(trifluoromethoxy)phenyl)benzo[d][1,2,3]triazin-4(3H)-one] | 16%
O=c1c2cc(-c3ccc(OC(F)(F)F)cc3)ccc2nnn1Cc1ccccc1 [II-42, 3-benzyl-6-(4-(trifluoromethoxy)phenyl)benzo[d][1,2,3]triazin-4(3H)-one] | 23%
O=c1c2cc(-c3ccc(OC(F)(F)F)cc3)ccc2nnn1OCc1ncccn1 [II-56, 3-(pyrimidin-2-ylmethoxy)-6-(4-(trifluoromethoxy)phenyl)benzo[d][1,2,3]triazin-4(3H)-one] | 22%
O=c1c2cc(-c3ccc(OC(F)(F)F)cc3)ccc2nnn1CC1(Cn2ccnc2)CC1 [II-58, 3-((1-((1H-imidazol-1-yl)methyl)cyclopropyl)methyl)-6-(4-(trifluoromethoxy)phenyl)benzo[d][1,2,3]triazin-4(3H)-one] | 25%
O=c1c2cc(-c3ccc(OC(F)(F)F)cc3)ccc2nnn1OCc1cccnc1 [II-59, 3-(pyridin-3-ylmethoxy)-6-(4-(trifluoromethoxy)phenyl)benzo[d][1,2,3]triazin-4(3H)-one] | 22%
O=C(Cn1nnc2ccc(-c3ccc(Oc4ccc(Cl)cc4)cc3)cc2c1=O)N1CCN(c2ncccn2)CC1 [II-65, 6-(4-(4-chlorophenoxyl)phenyl)-3-(2-oxo-2-(4-(pyrimidin-2-yl)piperazin-1-yl)ethyl)benzo[d][1,2,3]triazin-4(3H)-one] | 19%
CC(c1nc(C2CC2)no1)n1nnc2ccc(-c3ccc(OC(F)(F)F)cc3)cc2c1=O (centres unmarked) [II-79, 3-(1-(3-cyclopropyl-1,2,4-oxadiazol-5-yl)ethyl)-6-(4-(trifluoromethoxy)phenyl)benzo[d][1,2,3]triazin-4(3H)-one] | 54%

Structure (SMILES) | inhibition at 1 µM
O=c1c2cc(-c3ccc(OC(F)(F)F)cc3)ccc2cnn1Cc1ccccc1 [III-6, 2-benzyl-7-(4-(trifluoromethoxy)phenyl)phthalazin-1(2H)-one] | 18%
O=c1c2cc(-c3ccc(OC(F)(F)F)cc3)ccc2cnn1CCc1ccccc1 [III-8, 2-phenethyl-7-(4-(trifluoromethoxy)phenyl)phthalazin-1(2H)-one] | 19%
Cc1nonc1Cn1ncc2ccc(-c3ccc(OC(F)(F)F)cc3)cc2c1=O [III-11, 2-((4-methyl-1,2,5-oxadiazol-3-yl)methyl)-7-(4-(trifluoromethoxy)phenyl)phthalazin-1 (2H)-one] | 30%
N#Cc1cccc(Cn2ncc3ccc(-c4ccc(OC(F)(F)F)cc4)cc3c2=O)n1 [III-12, 6-((1-oxo-7-(4-(trifluoromethoxy)phenyl)phthalazin-2(1H)-yl)methyl)picolinonitrile] | 21%
Cn1c(CCn2ncc3ccc(-c4ccc(OC(F)(F)F)cc4)cc3c2=O)nc2ccccc21 [III-25, 2-(2-(1-methyl-1H-benzo[d]imidazol-2-yl)ethyl)-7-(4-(trifluoromethoxy)phenyl)phthalazin-1 (2H)-one] | 16%
O=c1c2cc(-c3ccc(OC(F)(F)F)cc3)ccc2cnn1CCn1cncn1 [III-26, 2-(2-(1H-1,2,4-triazol-1-yl)ethyl)-7-(4-(trifluoromethoxy)phenyl)phthalazin-1 (2H)-one] | 26%
O=c1c2cc(-c3ccc(OC(F)(F)F)cc3)ccc2cnn1CCn1cc(Br)cn1 [III-31, 2-(2-(4-bromo-1H-pyrazol-1-yl)ethyl)-7-(4-(trifluoromethoxy)phenyl)phthalazin-1 (2H)-one] | 27%
O=c1c2cc(-c3ccc(OC(F)(F)F)cc3)ccc2cnn1Cc1cc(-c2ccccn2)on1 [III-41, 2-((5-(pyridin-2-yl)isoxazol-3-yl)methyl)-7-(4-(trifluoromethoxy)phenyl)phthalazin-1 (2H)-one] | 24%
O=C1c2cc(C#Cc3ccc(C(F)(F)F)cc3)ccc2CCN1Cc1ncccn1 [IX-4] | 20%
O=C1c2cc(C#Cc3ccc(OC(F)(F)F)cc3)ccc2CCN1Cc1ncccn1 [IX-5] | 20%
O=C(c1ncccn1)N1CCc2ccc(-c3ccc(C(F)(F)F)cc3F)cc2C1 [IX-22, (7-(2-fluoro-4-(trifluoromethyl)phenyl)-3,4-dihydroisoquinolin-2(1H)-yl)(pyrimidin-2-yl)methanone] | 29%
O=C(c1ncccn1)N1CCc2ccc(-c3ccc(Cl)cc3F)cc2C1 [IX-23, (7-(4-chloro-2-fluorophenyl)-3,4-dihydroisoquinolin-2(1H)-yl)(pyrimidin-2-yl)methanone] | 27%
O=C(c1ncccn1)N1CCc2ccc(-c3ccc(Cl)c(F)c3)cc2C1 [IX-24, (7-(4-chloro-3-fluorophenyl)-3,4-dihydroisoquinolin-2(1H)-yl)(pyrimidin-2-yl)methanone] | 19%
Cc1nn(C)c(C)c1C(=O)N1CCc2ccc(-c3ccc(C(F)(F)F)cc3)cc2C1 [IX-26, (7-(4-(trifluoromethyl)phenyl)-3,4-dihydroisoquinolin-2(1H)-yl)(1,3,5-trimethyl-1H-pyrazol-4-yl)methanone] | 15%
CC(C)n1cc(C(=O)N2CCc3ccc(-c4ccc(C(F)(F)F)cc4)cc3C2)cn1 [IX-27, (1-isopropyl-1H-pyrazol-4-yl)(7-(4-(trifluoromethyl)phenyl)-3,4-dihydroisoquinolin-2(1H)-yl)methanone] | 18%
Cc1nn(C)cc1C(=O)N1CCc2ccc(-c3ccc(C(F)(F)F)cc3)cc2C1 [IX-28, (1,3-dimethyl-1H-pyrazol-4-yl)(7-(4-(trifluoromethyl)phenyl)-3,4-dihydroisoquinolin-2(1H)-yl)methanone] | 24%
